We go through three molecules from US20170143712A1, “Methods of Treating Cancers, Immune and Autoimmune Diseases, and Inflammatory Diseases Based on BTK Occupancy and BTK Resynthesis Rate” (Acerta Pharma B.V., priority 2014, published 2017).

Each structure is given as a SMILES string.

Test [1] concerns BCR signaling through BTK. The experiment in a line: Anti-IgM induced CD86 and CD69 on splenocyte B cells of CIA mice. The format is in vivo, mouse. The conditions noted are these: splenocytes 3 hr after last dosing on day 14. The protocol: FIG. 45 illustrates changes in a functional measure of BCR signalling through the CD86 marker. Mouse splenocytes were isolated from spleens from mice that were part of the mouse CIA study semi-therapeutic protocol, 3 hr after the last dosing on day 14 of the treatment and cryopreserved. After thawing, inhibition of anti-IgM-induced PD markers CD86 and CD69 on mouse splenocyte B cells were measured. Error bars represent the standard deviation for the 3 sets of splenocytes analyzed.
FIG. 46 illustrates changes in a functional measure of BCR signalling through the CD69 marker. Mouse splenocytes were isolated from spleens from mice that were part of the mouse CIA study semi-therapeutic protocol, 3 hr after the last dosing on day 14 of the treatment and cryopreserved. After thawing, inhibition of anti-IgM-induced PD markers CD86 and CD69 on mouse splenocyte B cells were measured. Error bars represent the standard deviation for the 3 sets of splenocytes analyzed.
Inhibition of the BCR signaling through BTK was evaluated by ex vivo stimulation of splenocytes using IgM and evaluation of CD86 and CD69 as functional responses of BCR stimulation.

The test system of test [2] is established type II collagen-induced arthritis (CIA) in DBA/1 mice. The experiment in a line: 14-day mouse established type II collagen-induced arthritis (CIA), PO QD (Example 10). The format is in vivo. The settings on record: for arthritis scores measured daily vs vehicle controls / disease-induced body weight loss (percent change from baseline) vs vehicle controls: p<0.05 on the days printed; for AUC (All Paws) - Corrected for Initial Score / Change in Body Weight (g) / Histopathology Summed Score Knees / Histopathology Summed Score Paws / Histopathology Summed Score Six-Joints / Paw Score AUC (All Paws): mean(SE); for spleen weights compared to vehicle controls: all dose groups PO QD. The protocol: Prior to dosing, the candidate anti-inflammatory agents were reconstituted either by vortexing or stirring. The candidate anti-inflammatory agents were administered to the DBA/1 mice daily (QD) by the oral (PO) route.
Immunization with heterologous type II collagen (CII) induces arthritis in mice of the DBA/1 strain, which is genetically susceptible to this disease. To develop an experimental model of autoimmunity more adequate for the study of human rheumatoid arthritis (RA), male DBA/1 mice were injected intradermally (ID) with bovine type II collagen to induce arthritis as reported by Trentham et al (Trentham D E, Townes A S, Kang A H Autoimmunity to type II collagen: an experimental model of arthritis. J. Exper. Med. 1977, 146:857-868) and Bendele A (Bendele A, Animal models of rheumatoid arthritis. J. Musculoskelet. Neuronal Interact. 2001, 1(4):377-85). Male DBA/1 mice (n=114) that were 6-7 weeks old and weighed approximately 18-27 grams (mean 22 g) at enrollment (arthritis day 1) were obtained from Taconic Farms, Inc. The male DBA/1 mice were at least 6 weeks old at time of first immunization and were housed 3-5/cage in shoe-box polycarbonate cages with wire tops, wood chip bedding, and suspended food and water bottles. These animals were identified by a distinct number of ink marks at the base of the tail delineating animal number. After enrollment, all cages were labeled with protocol number, group number, and animal numbers.
The male DBA/1 (n=10/group for arthritis) were anaesthetized with Isoflurane, shaved at the base of the tail, and injected intradermally with 150 μL of Freund's Complete Adjuvant (Difco, Detroit, Mich.) containing bovine type II collagen (BBP, batch #7) (1 mg/ml) at the base of the tail on day 0 and again on day 21. […] Randomization was done after swelling was obviously established in at least one paw (score of 1) and attempts were made to ensure approximately equal mean scores of 0.5-1 across groups at the time of enrollment. […] The male DBA/1 mice were terminated on arthritis day 14 (3 hours post-dose).
Efficacy evaluation of the administered anti-inflammatory agents was based on animal body weights, clinical arthritis scores, arthritis scores expressed as area under the curve (AUC), and histopathology on fore paws, hind paws, and knees. Histopathology results were expressed as 4 paws, knees only, or 6 joints (knees included). Day 13 was used as the endpoint for analysis of body weight change since the male DBA/1 mice were fasted overnight prior to necropsy on day 14.

The next test has as its system MDA-MB-231 tumor cells. In words: Osteolytic bone lesions after intratibial MDA-MB-231 tumor inoculation in nude rats. The format is in vivo, rat. The arrangement: mean visual lysis score: scale not given here; mean left tibial density: unit not given here. The settings on record: zoledronate group (Group 2). The protocol: FIG. 40A, FIG. 40B, FIG. 40C, FIG. 40D, FIG. 40E, FIG. 40F, and FIG. 40G illustrate the bone density in hind limbs of nude rats (n=6 per group) implanted with intratibial MDA-MB231 tumor […] and treated for up to 41 days with vehicle control, zoledronate (active control) or varying doses of Formula (II). Oral gavage administration of Formula (II) was scheduled as 3 days of initial QD dosing, followed by 30 days of BID dosing at the following dose levels: 3/3, 30/30, and 180/90 mg/kg/day. An untreated group of rats, without tibial implants (n=3) represents bone density of concurrently obtained normal rat tibial images. Statistical significance was determined by two-way ANOVA-Dunnett: ns=not significant, *=P<0.05, **=P<0.01, ***=P<0.001, versus Group 1.
Rats were inoculated with MDA-MB-231 tumor cells on Day 1, baseline radiographs were taken on Day 2, and treatment with Formula (II) began on Day 8. Radiographs were taken on Days 10, 17, 24, 31, 38, and 41. Anti-osteolytic activities were determined from differences in bone density and visual lysis scores between the drug-treated and vehicle-treated groups on each observation day, and also from changes in bone density and visual lysis scores in tumor-inoculated left tibias at baseline (Day 2) compared to Days 10, 17, 24,31, 38, and 41.
Radiographs were blinded for both analyses. […] Visual osteolysis was not detected in any rat in the nave group. The 4% increase in mean bone density from baseline to study end presumably reflected normal growth in these rats.

Where [3] appears, read: 5 mg/kg PO QD, prophylactic paws.
The mark [4] stands for this setting: 5 mg/kg PO QD, prophylactic paws only.
[5] abbreviates: 5 mg/kg PO QD, therapeutic paws only.

Turning to `CC#CC(=O)N1CC[C@@H](n2c(=O)n(-c3ccc(Oc4ccccc4)cc3)c3c(N)ncnc32)C1` [Formula (XXI), 6-amino-9-[(3R)-1-(2-butynoyl)-3-pyrrolidinyl]-7-(4-phenoxyphenyl)-7,9-dihydro-8H-purin-8-one], the “BCR-mediated signaling (anti-IgM induced CD86 and CD69)” value in test [1] is listed as “dose-responsive decreases in BCR-mediated signaling”. In test [2] (1 mg/kg PO QD), the “six-joint histopathology, reduction of summed scores vs vehicle controls” value (shortened to “six-joint histopathology, reduction”) was 73%; the “total body weight loss from enrollment to study termination” value is listed as “significantly inhibited”; the “AUC (All Paws) - Corrected for Initial Score” value (shortened to “AUC (All Paws) - Corrected”) is given as 7.28(3.26); the “Change in Body Weight (g)” value is listed as “*0.33(0.82) g”. Besides, in test [2] (1 mg/kg PO QD), the “Histopathology Summed Score Knees” value is reported as “*3.45(1.22)”, the “Histopathology Summed Score Paws” value was “*4.14(1.27)”, the “Histopathology Summed Score Six-Joints” value is reported as “*3.91(1.13)” and the “Paw Score AUC (All Paws)” value is reported as “*14.43(4.11)”. For the same molecule, the “disease-induced body weight loss (percent change from baseline) vs vehicle controls” value in test [2] (1 mg/kg PO QD) is recorded as “significantly inhibited toward normal”. Moreover, in test [2] (1 mg/kg PO QD, all paws), the “Clinical arthritis scores AUC, reduction vs vehicle controls” value came out at 65%; the “Clinical arthritis scores AUC, reduction when corrected for initial enrollment score” value worked out at 79%; the “arthritis scores measured daily vs vehicle controls” value is listed as “significantly reduced toward normal”. In addition, in test [2] (1 mg/kg PO QD, prophylactic paws), the “daily arthritis scores vs vehicle controls” value was “significantly reduced toward normal”. Moreover, the “Clinical arthritis scores AUC, reduction vs vehicle controls” value in test [2] (1 mg/kg PO QD, prophylactic paws only) is reported as 99%. Further, in test [2] (5 mg/kg PO QD), the “six-joint histopathology, reduction” value was 85%; the “total body weight loss from enrollment to study termination” value is given as “significantly inhibited”; the “AUC (All Paws) - Corrected” value is listed as “*−1.33(1.48)”; the “Change in Body Weight (g)” value is “*0.89(0.71) g”. For the same molecule, in test [2] (5 mg/kg PO QD), the “Histopathology Summed Score Knees” value was “*3.48(1.17)”, the “Histopathology Summed Score Paws” value was “*1.46(0.47)”, the “Histopathology Summed Score Six-Joints” value is “*2.13(0.66)” and the “Paw Score AUC (All Paws)” value was “*5.83(1.53)”. The “disease-induced body weight loss (percent change from baseline) vs vehicle controls” value in test [2] (5 mg/kg PO QD) was “significantly inhibited toward normal”. Moreover, in test [2] (5 mg/kg PO QD, all paws), the “Clinical arthritis scores AUC, reduction vs vehicle controls” value worked out at 86%; the “Clinical arthritis scores AUC, reduction when corrected for initial enrollment score” value came out at 104%; the “arthritis scores measured daily vs vehicle controls” value is listed as “significantly reduced toward normal”. Moreover, the “daily arthritis scores vs vehicle controls” value in test [2] (setting [3]) is listed as “significantly reduced toward normal”. Further, the “Clinical arthritis scores AUC, reduction vs vehicle controls” value in test [2] (setting [4]) is 100%. The “daily arthritis scores vs vehicle controls” value in test [2] (5 mg/kg PO QD, therapeutic paws) was “significantly reduced toward normal”. In test [2] (setting [5]), the “Clinical arthritis scores AUC, reduction vs vehicle controls” value amounted to 66% and the “Clinical arthritis scores AUC, reduction when corrected for initial enrollment score” value stood at 113%. Also, the “spleen weights compared to vehicle controls” value in test [2] is “not significantly affected”.
For `CC#CC(=O)N1CCOC[C@H]1c1nc(-c2ccc(C(=O)Nc3ccccn3)cc2)c2c(N)nccn12` [(R)-4-(8-amino-3-(4-(but-2-ynoyl)morpholin-3-yl)imidazo[1,5-a]pyrazin-1-yl)-N-(pyridin-2-yl)benzamide], in test [1], the “BCR-mediated signaling (anti-IgM induced CD86 and CD69)” value is “dose-responsive decreases in BCR-mediated signaling”. In test [2] (5 mg/kg PO QD), the “six-joint histopathology, reduction” value was 75%; the “AUC (All Paws) - Corrected” value is recorded as “*3.43(2.22)”; the “Change in Body Weight (g)” value is −0.04(0.92) g; the “Histopathology Summed Score Knees” value was “*2.65(0.79)”. In test [2] (5 mg/kg PO QD), the “Histopathology Summed Score Paws” value is given as 4.24(1.07), the “Histopathology Summed Score Six-Joints” value is recorded as “*3.71(0.87)”, the “Paw Score AUC (All Paws)” value is listed as “*10.58(2.95)” and the “disease-induced body weight loss (percent change from baseline) vs vehicle controls” value was “significantly inhibited toward normal”. For the same molecule, in test [2] (5 mg/kg PO QD, all paws), the “Clinical arthritis scores AUC, reduction vs vehicle controls” value is recorded as 74%; the “Clinical arthritis scores AUC, reduction when corrected for initial enrollment score” value turned out to be 90%; the “arthritis scores measured daily vs vehicle controls” value is recorded as “significantly reduced toward normal”. In addition, the “daily arthritis scores vs vehicle controls” value in test [2] (setting [3]) is on record as “significantly reduced toward normal”. In addition, the “Clinical arthritis scores AUC, reduction vs vehicle controls” value in test [2] (setting [4]) is on record as 95%. The “spleen weights compared to vehicle controls” value in test [2] is reported as “not significantly affected”.
Regarding `O=P(O)(O)C(O)(Cn1ccnc1)P(=O)(O)O` [zoledronate, reference compound], the “mean left tibial density” value in the test on MDA-MB-231 tumor cells (Day 2 baseline) came to 200.0±1.6; in the test on MDA-MB-231 tumor cells (Day 31), 207.8±1.6; with MDA-MB-231 tumor cells (Day 41) it was 211.2±1.6. Also, the “increase in mean left tibial density” value in the test with MDA-MB-231 tumor cells (Day 2 to Days 31 and 41) is listed as 4-6%. Moreover, the “mean visual lysis score” value in the test on MDA-MB-231 tumor cells (Days 31 and 41 each) was found to be 0.7.
